Values of other authors, collected in patent US20020137692A1, “Novel compositions of potassium channel openers and protein kinase C inhibitors and use thereof” (Pharmacia AB, priority 2001, published 2002).

In the case of `CCCCCCCCCCCCCCCC(=O)OC(CC(=O)O)C[N+](C)(C)C.[Cl-]` (racemic) [palmitoyl-DL-carnitine chloride], the “anagen induction in vivo” value (hair growth) is given as “marked anagen induction”.
For `Oc1cc(O)c2c(c1)O[C@H](c1ccc(O)c(O)c1)[C@@H](O)[C@@H]2c1c(O)cc(O)c2c1O[C@H](c1ccc(O)c(O)c1)[C@@H](O)C2` [Solution B3, procyanidin B3], the hair growth stimulation (C3H mouse) is listed as “hair growth stimulation” and the “stimulation of hair keratinocytes” value (hair keratinocytes) is listed as “stimulation of hair keratinocytes”.
For `CCCCCCCCCCCCCCCCOP(=O)([O-])OCC[N+](C)(C)C` [hexadecylphosphocholine], the “anagen induction in vivo” value (hair growth) is listed as “marked anagen induction”.
In the case of `Oc1cc(O)c2c(c1)O[C@H](c1ccc(O)c(O)c1)[C@H](O)[C@H]2c1c(O)cc(O)c2c1O[C@H](c1ccc(O)c(O)c1)[C@@H](O)C2` [procyanidin B1], the hair growth stimulation (C3H mouse) is listed as “hair growth stimulation” and the “stimulation of hair keratinocytes” value (hair keratinocytes) is listed as “stimulation of hair keratinocytes”.
In the case of `Oc1cc(O)c2c(c1)O[C@H](c1ccc(O)c(O)c1)[C@H](O)[C@H]2c1c(O)cc(O)c2c1O[C@H](c1ccc(O)c(O)c1)[C@H](O)C2` [procyanidin B2], the hair growth stimulation (C3H mouse) is listed as “hair growth stimulation”, the “stimulation of hair keratinocytes” value (hair keratinocytes) is listed as “stimulation of hair keratinocytes” and the “anagen induction in vivo” value (hair growth) is listed as “marked anagen induction”.
In the case of `Oc1cc(O)c2c(c1)O[C@H](c1ccc(O)c(O)c1)[C@H](O)[C@H]2c1c(O)cc(O)c2c1O[C@H](c1ccc(O)c(O)c1)[C@H](O)[C@H]2c1c(O)cc(O)c2c1O[C@H](c1ccc(O)c(O)c1)[C@H](O)C2` [procyanidin C1], the hair growth stimulation (C3H mouse) is given as “hair growth stimulation”, the “stimulation of hair keratinocytes” value (hair keratinocytes) is given as “stimulation of hair keratinocytes” and the “anagen induction in vivo” value (hair growth) is given as “marked anagen induction”.
In the case of calphostin C, the “anagen induction in vivo” value (hair growth) is given as “marked anagen induction”.
In the case of polymyxin B sulfate, the “anagen induction in vivo” value (hair growth) is given as “marked anagen induction”.
